Results published in ChEMBL document CHEMBL1201862, “PubChem BioAssay data set” (2004).
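Results reflect a 48-hour exposure of cells in 96-well plates to compound at five concentrations. At the GI50, growth is halved.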 The source made the active and inactive calls. No stated cut-off is given here; in the data, active = GI50 up to about 1.1 µM and inactive = higher.

Assays:
Experiment in all cases: growth of human tumour cells (NCI), 48 h
786-0 = system: 786-0
A498 = system: A498
A549 = system: A549
ACHN = system: ACHN
BT-549 = system: BT-549
CAKI-1 = system: CAKI-1
CCRF-CEM = system: CCRF-CEM
COLO 205 = system: COLO 205
DLD-1 = system: DLD-1
DMS-114 = system: DMS-114
DMS-273 = system: DMS-273
DU-145 = system: DU-145
EKVX = system: EKVX
HCC 2998 = system: HCC 2998
HCT-116 = system: HCT-116
HCT-15 = system: HCT-15
HL-60 = system: HL-60
HOP-62 = system: HOP-62
HOP-92 = system: HOP-92
HT-29 = system: HT-29
Hs-578T = system: Hs-578T
IGROV-1 = system: IGROV-1
K562 = system: K562
KM-20L2 = system: KM-20L2
KM12 = system: KM12
LOX IMVI = system: LOX IMVI
LXFL 529 = system: LXFL 529
M14 = system: M14
M19-MEL = system: M19-MEL
MCF7 = system: MCF7
MDA-MB-231 = system: MDA-MB-231
MDA-MB-435 = system: MDA-MB-435
MDA-N = system: MDA-N
MOLT-4 = system: MOLT-4
Malme-3M = system: Malme-3M
NCI-H226 = system: NCI-H226
NCI-H23 = system: NCI-H23
NCI-H460 = system: NCI-H460
NCI-H522 = system: NCI-H522
NCI/ADR-RES = system: NCI/ADR-RES
OVCAR-3 = system: OVCAR-3
OVCAR-4 = system: OVCAR-4
OVCAR-5 = system: OVCAR-5
OVCAR-8 = system: OVCAR-8
PC-3 = system: PC-3
RPMI-8226 = system: RPMI-8226
RXF 393 = system: RXF 393
RXF 631 = system: RXF 631
SF-268 = system: SF-268
SF-295 = system: SF-295
SF-539 = system: SF-539
SK-MEL-28 = system: SK-MEL-28
SK-MEL-2 = system: SK-MEL-2
SK-MEL-5 = system: SK-MEL-5
SK-OV-3 = system: SK-OV-3
SN12C = system: SN12C
SNB-19 = system: SNB-19
SNB-75 = system: SNB-75
SNB-78 = system: SNB-78
SW-620 = system: SW-620
T47D = system: T47D
TK-10 = system: TK-10
U-251 = system: U-251
UACC-257 = system: UACC-257
UACC-62 = system: UACC-62
UO-31 = system: UO-31
XF498 = system: XF498
SR = system: SR

COC(=O)C(CBr)CBr
GI50 (786-0): 4.52 µM (inactive)
GI50 (A498): 16.8 µM (inactive)
GI50 (A549): 18.2 µM (inactive)
GI50 (ACHN): 3.7 µM (inactive)
GI50 (BT-549): 2.65 µM (inactive)
GI50 (CAKI-1): 5.51 µM (inactive)
GI50 (CCRF-CEM): 0.762 µM (active)
GI50 (COLO 205): 1.27 µM (inactive)
GI50 (DLD-1): 2.04 µM (inactive)
GI50 (DMS-114): 2.06 µM (inactive)
GI50 (DMS-273): 12.7 µM (inactive)
GI50 (DU-145): 16.6 µM (inactive)
GI50 (EKVX): 9.55 µM (inactive)
GI50 (HCC 2998): 4.49 µM (inactive)
GI50 (HCT-116): 2.96 µM (inactive)
GI50 (HCT-15): 1.71 µM
GI50 (HL-60): 0.253 µM (active)
GI50 (HOP-62): 22.5 µM (inactive)
GI50 (HOP-92): 1.79 µM (inactive)
GI50 (HT-29): 4.1 µM (inactive)
GI50 (Hs-578T): 4.65 µM (inactive)
GI50 (IGROV-1): 10.4 µM (inactive)
GI50 (K562): 1.57 µM (inactive)
GI50 (KM-20L2): 6.76 µM (inactive)
GI50 (KM12): 8.04 µM (inactive)
GI50 (LOX IMVI): 2.6 µM (inactive)
GI50 (LXFL 529): 1.79 µM (inactive)
GI50 (M14): 2.15 µM (inactive)
GI50 (M19-MEL): 3.21 µM (inactive)
GI50 (MCF7): 4.46 µM (inactive)
GI50 (MDA-MB-231): 2.12 µM (inactive)
GI50 (MDA-MB-435): 3.33 µM (inactive)
GI50 (MDA-N): 3.48 µM (inactive)
GI50 (MOLT-4): 1.69 µM (inactive)
GI50 (Malme-3M): 2.2 µM (inactive)
GI50 (NCI-H226): 13.3 µM (inactive)
GI50 (NCI-H23): 6.78 µM (inactive)
GI50 (NCI-H460): 14 µM (inactive)
GI50 (NCI-H522): 2.14 µM (inactive)
GI50 (NCI/ADR-RES): 3.1 µM (inactive)
GI50 (OVCAR-3): 2.65 µM (inactive)
GI50 (OVCAR-4): 4.03 µM (inactive)
GI50 (OVCAR-5): 16.8 µM (inactive)
GI50 (OVCAR-8): 3.41 µM (inactive)
GI50 (PC-3): 10.2 µM (inactive)
GI50 (RPMI-8226): 0.757 µM (active)
GI50 (RXF 393): 2.19 µM (inactive)
GI50 (RXF 631): 3.05 µM (inactive)
GI50 (SF-268): 15.1 µM (inactive)
GI50 (SF-295): 16.2 µM (inactive)
GI50 (SF-539): 5.96 µM (inactive)
GI50 (SK-MEL-28): 3.77 µM (inactive)
GI50 (SK-MEL-2): 10.8 µM (inactive)
GI50 (SK-MEL-5): 8.75 µM (inactive)
GI50 (SK-OV-3): 18.8 µM (inactive)
GI50 (SN12C): 3.9 µM (inactive)
GI50 (SNB-19): 8.51 µM (inactive)
GI50 (SNB-75): 16.3 µM (inactive)
GI50 (SNB-78): 1.79 µM (inactive)
GI50 (SW-620): 1.27 µM (inactive)
GI50 (T47D): 2.5 µM (inactive)
GI50 (TK-10): 4.79 µM (inactive)
GI50 (U-251): 5.56 µM (inactive)
GI50 (UACC-257): 5.58 µM (inactive)
GI50 (UACC-62): 9.42 µM (inactive)
GI50 (UO-31): 5.65 µM (inactive)
GI50 (XF498): 2.3 µM (inactive)

CC(=O)OC1=CC2(OC(C)=O)CC(C)(C)C1C1C(=O)C=CC(=O)C12 (configuration not stated)
GI50 (786-0): > 50.7 µM (inactive)
GI50 (A498): 72.8 µM (inactive)
GI50 (A549): > 100 µM (inactive)
GI50 (ACHN): 20.1 µM (inactive)
GI50 (BT-549): 11.3 µM (inactive)
GI50 (CAKI-1): > 63.5 µM (inactive)
GI50 (CCRF-CEM): > 100 µM (inactive)
GI50 (COLO 205): > 42.5 µM (inactive)
GI50 (DLD-1): > 100 µM (inactive)
GI50 (DMS-114): > 100 µM (inactive)
GI50 (DMS-273): > 100 µM (inactive)
GI50 (DU-145): > 100 µM (inactive)
GI50 (EKVX): > 68.9 µM (inactive)
GI50 (HCC 2998): > 58.3 µM (inactive)
GI50 (HCT-116): > 51.3 µM (inactive)
GI50 (HCT-15): > 55.6 µM
GI50 (HL-60): > 100 µM (inactive)
GI50 (HOP-62): > 80.9 µM (inactive)
GI50 (HOP-92): 42.5 µM (inactive)
GI50 (HT-29): 19.8 µM (inactive)
GI50 (IGROV-1): > 50.7 µM (inactive)
GI50 (K562): 97.1 µM (inactive)
GI50 (KM-20L2): > 100 µM (inactive)
GI50 (KM12): > 100 µM (inactive)
GI50 (LOX IMVI): > 42.1 µM (inactive)
GI50 (LXFL 529): > 100 µM (inactive)
GI50 (M14): > 79.3 µM (inactive)
GI50 (M19-MEL): > 100 µM (inactive)
GI50 (MCF7): 32.7 µM (inactive)
GI50 (MDA-MB-231): 54 µM (inactive)
GI50 (MDA-MB-435): 22.9 µM (inactive)
GI50 (MDA-N): 31.1 µM (inactive)
GI50 (MOLT-4): > 63.8 µM (inactive)
GI50 (Malme-3M): 17.6 µM (inactive)
GI50 (NCI-H226): 29.4 µM (inactive)
GI50 (NCI-H23): > 73.1 µM (inactive)
GI50 (NCI-H460): > 62.8 µM (inactive)
GI50 (NCI-H522): > 36.5 µM (inactive)
GI50 (NCI/ADR-RES): 49.8 µM (inactive)
GI50 (OVCAR-3): > 66.7 µM (inactive)
GI50 (OVCAR-4): > 100 µM (inactive)
GI50 (OVCAR-5): > 100 µM (inactive)
GI50 (OVCAR-8): > 58.2 µM (inactive)
GI50 (PC-3): 57.8 µM (inactive)
GI50 (RPMI-8226): > 66.8 µM (inactive)
GI50 (RXF 393): 44.6 µM (inactive)
GI50 (RXF 631): > 100 µM (inactive)
GI50 (SF-268): > 63 µM (inactive)
GI50 (SF-295): > 75 µM (inactive)
GI50 (SF-539): > 47.1 µM (inactive)
GI50 (SK-MEL-28): 41.4 µM (inactive)
GI50 (SK-MEL-2): > 100 µM (inactive)
GI50 (SK-MEL-5): > 85.3 µM (inactive)
GI50 (SK-OV-3): > 100 µM (inactive)
GI50 (SN12C): > 56.6 µM (inactive)
GI50 (SNB-19): > 100 µM (inactive)
GI50 (SNB-75): > 64.6 µM (inactive)
GI50 (SNB-78): > 100 µM (inactive)
GI50 (SR): > 64.3 µM (inactive)
GI50 (SW-620): > 65 µM (inactive)
GI50 (T47D): 49.4 µM (inactive)
GI50 (TK-10): > 100 µM (inactive)
GI50 (U-251): > 66.2 µM (inactive)
GI50 (UACC-257): > 100 µM (inactive)
GI50 (UACC-62): 15.7 µM (inactive)
GI50 (UO-31): > 70 µM (inactive)
GI50 (XF498): > 100 µM (inactive)

CCC(=O)c1c(NOC2OC(COC(C)=O)C(OC(C)=O)C(OC(C)=O)C2OC(C)=O)nc(OC)n(C)c1=O (configuration not stated)
GI50 (786-0): > 100 µM (inactive)
GI50 (A549): > 100 µM (inactive)
GI50 (ACHN): > 100 µM (inactive)
GI50 (CCRF-CEM): > 100 µM (inactive)
GI50 (COLO 205): > 100 µM (inactive)
GI50 (DLD-1): > 100 µM (inactive)
GI50 (DMS-114): > 100 µM (inactive)
GI50 (DMS-273): > 100 µM (inactive)
GI50 (EKVX): > 100 µM (inactive)
GI50 (HCC 2998): > 100 µM (inactive)
GI50 (HCT-116): > 100 µM (inactive)
GI50 (HCT-15): > 100 µM
GI50 (HOP-62): > 100 µM (inactive)
GI50 (HT-29): > 100 µM (inactive)
GI50 (IGROV-1): > 100 µM (inactive)
GI50 (K562): > 100 µM (inactive)
GI50 (KM-20L2): > 100 µM (inactive)
GI50 (KM12): > 100 µM (inactive)
GI50 (LOX IMVI): > 100 µM (inactive)
GI50 (LXFL 529): > 100 µM (inactive)
GI50 (M14): > 100 µM (inactive)
GI50 (M19-MEL): > 100 µM (inactive)
GI50 (MOLT-4): > 100 µM (inactive)
GI50 (NCI-H226): 50.1 µM (inactive)
GI50 (NCI-H23): > 100 µM (inactive)
GI50 (NCI-H460): > 100 µM (inactive)
GI50 (NCI-H522): > 100 µM (inactive)
GI50 (OVCAR-4): > 100 µM (inactive)
GI50 (OVCAR-5): > 100 µM (inactive)
GI50 (OVCAR-8): > 100 µM (inactive)
GI50 (RXF 393): > 100 µM (inactive)
GI50 (RXF 631): > 100 µM (inactive)
GI50 (SF-268): > 100 µM (inactive)
GI50 (SF-295): > 100 µM (inactive)
GI50 (SF-539): 69.2 µM (inactive)
GI50 (SK-MEL-28): > 100 µM (inactive)
GI50 (SK-MEL-2): > 100 µM (inactive)
GI50 (SK-MEL-5): > 100 µM (inactive)
GI50 (SN12C): > 100 µM (inactive)
GI50 (SNB-19): > 100 µM (inactive)
GI50 (SNB-75): > 100 µM (inactive)
GI50 (SNB-78): > 100 µM (inactive)
GI50 (SR): > 100 µM (inactive)
GI50 (SW-620): > 100 µM (inactive)
GI50 (TK-10): > 100 µM (inactive)
GI50 (U-251): > 100 µM (inactive)
GI50 (UACC-62): > 100 µM (inactive)
GI50 (XF498): > 100 µM (inactive)
